Reference: US9073855B2, “BCL-2 selective apoptosis-inducing agents for the treatment of cancer and immune diseases” (AbbVie Inc., priority 2008, dated 2015)

What was measured:
GST-Bcl-2 = GST-Bcl-2 (Homo sapiens, UniProt P10415); test: TR-FRET binding assay, GST-Bcl-2 with F-Bak peptide probe; settings: TR-FRET Binding Affinity, GST-Bcl-2, F-Bak peptide probe
Procedure, shortened: (§1)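 Ki was derived with Wang's equation for competitive binding of two ligands. The read-out was time-resolved fluorescence after a 3 h room-temperature incubation, using a Tb-labelled antibody donor and the F-Bak peptide acceptor (excitation 340/35 nm). Test compounds entered as DMSO serial dilutions starting at 50 μM, which was the 2× concentration.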

GST-Bcl-XL = GST-Bcl-XL (Homo sapiens, UniProt Q07817); test: TR-FRET binding assay, GST-Bcl-XL with F-Bak peptide probe; settings: TR-FRET Binding Affinity, GST-Bcl-XL, F-Bak peptide probe
Chain of GST-Bcl-XL (Q07817 whole entry): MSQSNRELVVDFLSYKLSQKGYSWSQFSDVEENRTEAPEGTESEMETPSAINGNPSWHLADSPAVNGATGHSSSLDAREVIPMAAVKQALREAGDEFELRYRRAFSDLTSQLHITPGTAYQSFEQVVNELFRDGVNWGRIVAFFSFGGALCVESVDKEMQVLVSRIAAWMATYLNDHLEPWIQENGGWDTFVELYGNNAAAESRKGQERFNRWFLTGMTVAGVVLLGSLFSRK
Procedure, shortened: as §1

FL5.12/Bcl-2 cells = test: FL5.12/Bcl-2 cell viability assay under IL-3 withdrawal (CellTitre Glo); type: cell-based, murine; settings: Mus musculus, IL-3 withdrawn 48 hrs, then 24 hrs with compound
Excerpt: FL5.12 is an IL-3 dependent prolymphocytic murine cell line that undergoes apoptosis upon IL-3 withdrawal as a result of the upregulation of pro-apoptotic Bcl-2 proteins such as Bim and Puma. Stable overexpression of anti-apoptotic Bcl-2 protein (FL5.12/Bcl-2) protects against apoptosis induced by IL-3 withdrawal by sequestration of Bim and Puma. […] The ability of compounds to kill FL5.12/Bcl-2 cells upon IL-3 withdrawal is a direct measure of the compounds' ability to inhibit anti-apoptotic Bcl-2 protein function.
Wild type FL5.12/Bcl-2 overexpressing stable transfectants were cultured in RPMI-1640 supplemented with 2 mM L-glutamine, 10% FBS, 1 mM sodium pyruvate, 2 mM HEPES, 1% penicillin/streptomycin (Invitrogen), 57 μM β-ME, and 10% WEHI-3B conditioned medium (source of IL-3) and maintained at 37° C. containing 5% CO2. 1×10^6 cells/ml were washed 1×PBS and resuspended in medium not supplemented with 10% WEHI-3B for 48 hrs prior to cytotoxicity assays. Cells were then treated for an additional 24 hrs in the presence of various concentrations of the indicated compounds. Cell viability was assessed by CellTitre Glo assay (Promega Corp.) according to the manufacturer's recommendations.

Chain of GST-Bcl-2 (P10415 whole entry): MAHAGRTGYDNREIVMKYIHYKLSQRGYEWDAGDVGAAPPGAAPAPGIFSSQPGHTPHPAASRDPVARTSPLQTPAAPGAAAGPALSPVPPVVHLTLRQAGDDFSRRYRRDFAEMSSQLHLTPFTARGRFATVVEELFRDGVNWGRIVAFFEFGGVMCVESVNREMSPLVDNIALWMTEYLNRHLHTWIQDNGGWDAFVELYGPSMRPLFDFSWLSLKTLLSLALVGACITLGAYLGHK

| SMILES | Ki (GST-Bcl-2) [nM] | Ki (GST-Bcl-XL) [nM] | EC50 (FL5.12/Bcl-2 cells) [nM] |
| --- | --- | --- | --- |
| CC1(C)CCC(CN2CCN(c3ccc(C(=O)NS(=O)(=O)c4ccc(NC5CCCCC5N)c([N+](=O)[O-])c4)c(Oc4ccc5[nH]ccc5c4)c3)CC2)=C(c2ccc(Cl)cc2)C1 (stereo not drawn) [Example 208, N-({4-[(2-aminocyclohexyl)amino]-3-nitrophenyl}sulfonyl)-4-(4-{[2-(4-chlorophenyl)-4,4-dimethylcyclohex-1-en-1-yl]methyl}piperazin-1-yl)-2-(1H-indol-5-yloxy)benzamide] | 0.589 | > 660 | 264 |
| CC1(C)CCC(CN2CCN(c3ccc(C(=O)NS(=O)(=O)c4ccc(NCCN5CCCC5=O)c([N+](=O)[O-])c4)c(Oc4ccc5[nH]ccc5c4)c3)CC2)=C(c2ccc(Cl)cc2)C1 [Example 251, 4-(4-{[2-(4-chlorophenyl)-4,4-dimethylcyclohex-1-en-1-yl]methyl}piperazin-1-yl)-2-(1H-indol-5-yloxy)-N-[(3-nitro-4-{[2-(2-oxopyrrolidin-1-yl)ethyl]amino}phenyl)sulfonyl]benzamide] | 0.328 | 472 | 78.1 |
| CC1(C)CCC(CN2CCN(c3ccc(C(=O)NS(=O)(=O)c4ccc(NCC5CCCCC5)c([N+](=O)[O-])c4)c(Oc4ccc5[nH]ccc5c4)c3)CC2)=C(c2ccc(Cl)cc2)C1 [Example 259, 4-(4-{[2-(4-chlorophenyl)-4,4-dimethylcyclohex-1-en-1-yl]methyl}piperazin-1-yl)-N-({4-[(cyclohexylmethyl)amino]-3-nitrophenyl}sulfonyl)-2-(1H-indol-5-yloxy)benzamide] | 1.99 | > 660 | > 500 |
| CC1(C)CCC(CN2CCN(c3ccc(C(=O)NS(=O)(=O)c4cnc(OCC5CCOCC5)c(Br)c4)c(Oc4ccc5[nH]ccc5c4)c3)CC2)=C(c2ccc(Cl)cc2)C1 [Example 329, N-{[5-bromo-6-(tetrahydro-2H-pyran-4-ylmethoxy)pyridin-3-yl]sulfonyl}-4-(4-{[2-(4-chlorophenyl)-4,4-dimethylcyclohex-1-en-1-yl]methyl}piperazin-1-yl)-2-(1H-indol-5-yloxy)benzamide] | 0.285 | > 660 | 127 |
| COCCNc1ccc(S(=O)(=O)NC(=O)c2ccc(N3CCN(CC4=C(c5ccc(Cl)cc5)CC(C)(C)CC4)CC3)cc2Oc2cccc3[nH]ccc23)cc1S(=O)(=O)C(F)(F)F [Example 309, 4-(4-{[2-(4-chlorophenyl)-4,4-dimethylcyclohex-1-en-1-yl]methyl}piperazin-1-yl)-2-(1H-indol-4-yloxy)-N-({4-[(2-methoxyethyl)amino]-3-[(trifluoromethyl)sulfonyl]phenyl}sulfonyl)benzamide] | 4.42 | > 660 | > 500 |
| CC1(C)CCC(CN2CCN(c3ccc(C(=O)NS(=O)(=O)c4ccc(NCC5CCOCC5)c(C#N)c4)c(Oc4cccc5[nH]ccc45)c3)CC2)=C(c2ccc(Cl)cc2)C1 [Example 366, 4-(4-{[2-(4-chlorophenyl)-4,4-dimethylcyclohex-1-en-1-yl]methyl}piperazin-1-yl)-N-({3-cyano-4-[(tetrahydro-2H-pyran-4-ylmethyl)amino]phenyl}sulfonyl)-2-(1H-indol-4-yloxy)benzamide] | 5.46 | > 660 | > 500 |
| CN1CC(Nc2ccc(S(=O)(=O)NC(=O)c3ccc(N4CCN(CC5=C(c6ccc(Cl)cc6)CC(C)(C)CC5)CC4)cc3Oc3ccc4[nH]ccc4c3)cc2[N+](=O)[O-])CC1=O (stereo not drawn) [Example 281, 4-(4-{[2-(4-chlorophenyl)-4,4-dimethylcyclohex-1-en-1-yl]methyl}piperazin-1-yl)-2-(1H-indol-5-yloxy)-N-({4-[(1-methyl-5-oxopyrrolidin-3-yl)amino]-3-nitrophenyl}sulfonyl)benzamide] | 0.076 | 119 | 60.2 |
